{
  "source": "patent US12371472B2",
  "about": "“Multimeric IL-15 soluble fusion molecules and methods of making and using same” (Altor BioScience, LLC., priority 2010, dated 2025)",
  "key": {"NK cells and CD8 T-cells": {"tested_on": "NK cells and CD8 T-cells", "test": "Immunostimulatory activity in C57BL/6 mice (NK cells, CD8 T cells, WBC, spleen weight)", "format": "in vivo", "experimental": "Changes in the percentage of peripheral blood mononuclear cells (PBMC) CD8^+ and NKp46^+ cells were assessed flow cytometry as shown in FIG. 48B. PBMCs were also used to assess NK cell activity based on lysis of NK-sensitive Yac-1 target cells in a calcein release assay as shown in FIG. 48C.\nOn study day 4, the percentage of PBMC CD8^+ and NKp46^+ cells were assessed by flow cytometry (FIG. 49A). Nude mice were treated i.v. with IL15N72D/IL15Rα-Fc (0.2 mg/kg) or T2M2 (2 mg/kg) of study day 1. On day 4 and 7 post treatment, the percentage of PBMC NKp46^+ cells was assessed by flow cytometry (FIG. 49B). […]\nMice were i.v. injected on day 1 and 4 with the fusion proteins at an amount equivalent to a 2.5 μg dose of IL-15. On day 8, blood cells and splenocytes were collected, stained for CD8 T-cells and NK cells, and analyzed by flow cytometry. […]\nC57BL/6 mice (male, 6 wks of age, Harlan, Indianapolis, IN) were injected intravenously with a single dose of IL-15N72D:IL-15RαSu/Fc fusion complex (Alt-803) at 1 mg/kg or human IL-15 wt at 0.28 mg/kg (molar equivalent dose), respectively, or PBS as a negative control. […] The stained cells were analyzed on a FACScan flow cytometer (BD Bioscience, San Jose, CA). […]"}, "murine EG7-OVA lymphoma": {"tested_on": "murine EG7-OVA lymphoma", "test": "EG7-OVA lymphoma primary subcutaneous tumor growth in C57BL/6 mice (Example 27)", "format": "in vivo", "details": "ALT-803 0.415 or 0.83 mg/kg, rhIL-15 0.06 mg/kg, four i.v. injections", "experimental": "To evaluate the effect of ALT-803 when administered via intravenous (i.v.) injection in multi-dose regimen on primary subcutaneous tumor growth of murine EG7-OVA lymphoma in C57BL/6 mice the following studies were carried out. Four treatment groups, ALT-803 (0.415 and 0.83 mg/kg), recombinant human interleukine-15 (rhIL-15, 0.06 mg/kg) and PBS (control), were examined in the study (Table 1). Female C57BL/6 mice (8-10 weeks old) were injected subcutaneously (s.c.) with EG7-OVA (1×10^6 cells in 100 μl PBS) on study day (SD) 0. PBS (n=5), rhIL-15 (n=5) or ALT-803 (n=5) were administered i.v. on SD 1, 4, 8, and 11 post EG7-OVA tumor cell injection. Tumors (width and length) were measured over the course of study. Tumor volume was the primary end point of the study.\nFemale C57BL/6 mice were injected s.c. with EG7-OVA (1×10^6 cells/mouse) on study day 0. […] During the study, mouse body weight and tumor width and length were measured and recorded.\nThe length (mm) and width (mm) of the tumors were measured and recorded. […]\nData were analyzed by ANOVA using GraphPad Prism Version 4.03. […] Tumor growth inhibition (TGI) was calculated using the following equation: TGI (%)=(Vcontrol−Vtreated)/Vcontrol×100, where Vcontrol is the mean tumor volume of mice from the PBS or rhIL-15 treatment control, and Vtreated is the mean tumor volume of mice receiving test article treatment."}, "[1]": {"tested_on": "human p53+ HLA-A2+ A375 melanoma cell line", "details": "vs PBS; for effect on s.c. A375 tumor xenografts: Example 17, i.v., equivalent molar doses", "quoted_text": "A375 human melanoma tumor cells (1×10^6) were injected s.c. into nude mice (5-6/group). […] The mice were treated three times a week for three weeks starting on study day 11 (FIG. 50A). A375-tumor bearing nude mice were also treated i.v. with 4 mg/kg T2M as in FIG. 50A (FIG. 50B). A375 tumor bearing nude mice were i.v. with equivalent molar doses of IL-15 (0.2 mg/kg), T2M2 (2 mg/kg) or PBS (FIG. 50C). Tumors were measured every other day and tumor volumes (mean±SEM) were plotted.\nTo determine the therapeutic effects of the T2 protein, we examined antitumor activity in a primary tumor growth model with the human p53+ HLA-A2+A375 melanoma cell line in nude mice. Tumor cells were injected subcutaneously into nude mice and tumors were allowed to grow to 100 mm 3 before treatment began. […] The mice were treated every other day for one week (3 injections) followed by a 9 day rest period and then every other day for an additional week (3 injections). During the study, tumor growth was measured and the tumor volumes were plotted (FIG. 27).\nThe antitumor activity of these complexes was further examined in the subcutaneous A375 xenograft model in nude mice."}, "IL-15Rα": {"molecular_target": "IL-15Rα", "sequence (Q13261 31-95 limits assumed)": "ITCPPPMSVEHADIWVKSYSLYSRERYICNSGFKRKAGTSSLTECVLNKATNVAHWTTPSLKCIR", "details": "cited from earlier work"}, "5T33P myeloma cells": {"tested_on": "5T33P myeloma cells", "test": "5T33P murine myeloma model", "details": "single i.v. ALT-803 0.2 mg/kg or molar equivalent IL-15, well-established tumors, four days after treatment", "quoted_text": "BM cells were collected 4 days after study drug treatments. […] The plotted values represent the mean±SE; P values are presented. […] Female C57BL/6NHsd mice (n=5/group) were injected i.v. with murine 5T33P myeloma cells (1×10^7 cells/mouse) on day 0. […] Control mice were treated with PBS on day 4. Survival (or morbidity due to hind leg paralysis) was monitored as a study endpoint. […] Five treatment-naïve mice were also administered 5T33P cells (1×10^7) on day 93 as a control for tumor development.\nTumor-bearing mice were monitored daily for hind leg paralysis, signs of overt disease progression and mortality.\nLevels of BM myeloma cells and hind leg paralysis or survival were assessed as study endpoints.\nControl mice received PBS (0.2 mL)."}, "32Dβ cells [2]": {"tested_on": "32Dβ cells", "details": "as disclosed in WO2008143794; cited from earlier work"}, "32Dβ cells [3]": {"tested_on": "32Dβ cells", "test": "32Dβ cell proliferation assay (WST-1), IL-15 biological activity", "format": "cell-based", "details": "hIL-15 wild-type domain, 48 h; read-out: half-maximal stimulation (EC50)", "experimental": "The biological activity of the IL-15 domain of the T2 molecules was further characterized in proliferation assays using the cytokine-dependent 32Dβ cell line. […] Cell proliferation reagent WST-1 (Roche Applied Science) was added during the last 4 h of cell growth according to the manufacturer's procedures. Conversion of WST-1 to the colored formazan dye by metabolically active cells was determined through absorbance measurements at 440 nm.\nCell proliferation assays—Cell proliferation was measured as previously described (25). Briefly, 32Dβ cells (1×10^5 cells/well) were incubated with increasing concentrations of scTCR/hIL-15 or scTCR/hIL-15 muteins in the presence or absence of an equal molar concentration of scTCR/hIL-15RαSu for 48 h at 37° C. Cell proliferation reagent WST-1 (Roche Applied Science, Indianapolis, IN) was added during the last 4 h of cell growth according to the manufacturer's procedures. Conversion of WST-1 to the colored formazan dye by metabolically active cells was determined through absorbance measurements at 440 nm. The EC50 was determined with the dose-response curve generated from the experimental data by nonlinear regression variable slope curve-fitting with Prizm4 software (GraphPad Software, La Jolla, CA). […]"}, "IL-15Rβγc receptors": {"molecular_target": "T1, IL-15Rβγc receptors (UniProt P14784+P34902)", "T1 construct": "expressed in transfected cells; host or cells: 32Dβ cells", "T1 sequence (P14784 27-551)": "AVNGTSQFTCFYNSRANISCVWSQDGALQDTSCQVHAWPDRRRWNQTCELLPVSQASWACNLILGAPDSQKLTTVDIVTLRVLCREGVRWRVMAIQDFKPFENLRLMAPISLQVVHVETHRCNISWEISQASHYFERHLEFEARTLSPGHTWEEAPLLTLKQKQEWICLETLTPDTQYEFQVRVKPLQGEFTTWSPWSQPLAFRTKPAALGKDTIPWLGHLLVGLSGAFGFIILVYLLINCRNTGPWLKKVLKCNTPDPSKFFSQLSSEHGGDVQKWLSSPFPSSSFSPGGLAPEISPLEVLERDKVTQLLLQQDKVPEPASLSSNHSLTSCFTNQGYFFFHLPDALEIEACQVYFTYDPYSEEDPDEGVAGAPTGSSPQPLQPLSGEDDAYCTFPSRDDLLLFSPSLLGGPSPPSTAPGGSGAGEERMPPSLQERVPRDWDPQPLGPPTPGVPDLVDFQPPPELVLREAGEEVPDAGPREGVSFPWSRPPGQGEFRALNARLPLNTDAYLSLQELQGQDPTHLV", "T1 sequence (P34902 23-369)": "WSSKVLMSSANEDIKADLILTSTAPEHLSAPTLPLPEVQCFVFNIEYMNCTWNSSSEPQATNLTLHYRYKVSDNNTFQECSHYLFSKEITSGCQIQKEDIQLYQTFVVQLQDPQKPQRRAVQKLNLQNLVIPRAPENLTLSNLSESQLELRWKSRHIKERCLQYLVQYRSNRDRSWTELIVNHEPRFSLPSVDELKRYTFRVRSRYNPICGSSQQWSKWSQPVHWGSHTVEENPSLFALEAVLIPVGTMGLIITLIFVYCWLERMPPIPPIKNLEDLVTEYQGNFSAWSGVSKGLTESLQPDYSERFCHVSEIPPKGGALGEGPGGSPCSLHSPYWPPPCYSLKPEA", "test": "IL-15Rβγc receptor binding of IL-15 variants and fusion complexes on 32Dβ cells (flow cytometry)", "details": "320 nM fusion protein complex", "experimental": "(§1) The fusion protein complexes comprising IL-15 variants as described in the table immediately above were characterized for their ability to bind the TCR-specific antigen, p53 (aa264-272)/HLA-A2.1. To generate cells presenting p53 (aa264-272)/HLA-A2.1, HLA-A2.1-positive T2 cells (2×10^6/mL) were loaded with 20 μM p53 (aa264-272) peptide at 37° C. in the presence of 1×PLE (Altor Bioscience) for 2-3 hrs. T2 cells that were not incubated with peptide and 321313 cells expressing IL-2/15Rβγc serve as controls. […] These complexes were generated by incubating 160 nM of purified c264scTCRhuIL15 fusion protein and 160 nM of purified c264scTCRhuIL15Rα Sushi fusion protein at 4 C for 3 hours. Following staining, cells were washed once with washing buffer (PBS containing 0.5% BSA and 0.05% sodium azide) and stained with 0.5 μg of biotinylated mouse monoclonal anti-human TCR Cβ antibody (BF1) in 100 μL of washing buffer for 30 min at 4 C. Cells were washed once and stained with 0.5 μg of R-Phycoerythrin conjugated streptavidin in 100 μL of washing buffer for 30 min at 4 C. Cells were washed and resuspended for analysis by flow cytometry.\nThe binding of the proteins was in turn detected with biotinylated (BF1) 8A3.31 mAb for 15 min and SA-PE (5 μg/ml each) for 15 min. The stained cells were analyzed by flow cytometry as described above."}, "p53 (aa264-272)/HLA-A2.1": {"tested_on": "p53 (aa264-272)/HLA-A2.1", "test": "Flow cytometry staining of p53 (aa264-272) peptide-loaded HLA-A2-positive T2 cells", "format": "binding, human", "details": "320 nM dimeric complex; vs c264scTCR/huIL15+c264scTCR/huIL15RαSushi complex", "experimental": "as §1, with “Cells were washed and resuspended for analysis by flow cytometry.” left out\nFor the OT1scTCR fusion protein complexes, murine lymphoma EL4 cells were pulsed with OVA peptide at 100 μg/ml and PLE at 37° C. for 6 h. […] The samples were washed two times and analyzed on a FACScan flow cytometer using CellQuest software (BD Biosciences, San Jose, CA). […]"}, "TNF-α": {"molecular_target": "TNF-α (Homo sapiens, UniProt P01375)", "sequence (P01375 77-233 limits assumed)": "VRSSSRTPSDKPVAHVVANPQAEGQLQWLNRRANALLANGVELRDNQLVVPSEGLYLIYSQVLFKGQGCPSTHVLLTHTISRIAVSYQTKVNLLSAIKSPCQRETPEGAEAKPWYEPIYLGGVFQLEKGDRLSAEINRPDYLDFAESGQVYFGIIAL", "details": "cited from earlier work"}},
  "note": "Like-named read-outs stand apart in the source and are kept apart here.",
  "data": [
    {"substance": "IL-15: recombinant human wild-type IL-15", "values": [
      {"measurement": "WBC counts, spleen weight and blood NK and CD8+ T cell populations", "setting": "NK cells and CD8 T-cells; Example 17, single i.v. dose at molar equivalent of IL-15 1 mg/kg, day 4", "value": "little or no effect"},
      {"measurement": "expansion of NK and CD8+ T cells in blood and spleen", "setting": "NK cells and CD8 T-cells; Example 22, single i.v. dose, complex 1 mg/kg or IL-15 wt 0.28 mg/kg, four days", "value": "no significant effect"},
      {"measurement": "EG7-OVA tumor growth vs PBS", "setting": "murine EG7-OVA lymphoma", "value": "significantly inhibited"},
      {"measurement": "effect on s.c. A375 tumor xenografts", "setting": "[1]", "value": "no effect"},
      {"measurement": "Kd", "setting": "IL-15Rα; in solution, Bouchaud et al. 2008, read-out: Kd of complex of soluble IL-15RαSu and IL-15", "value": 0.1, "unit": "nM"},
      {"measurement": "Kd", "setting": "IL-15Rα; read-out: Equilibrium dissociation constant (KD) of hIL-15 with hIL-15Rα", "value": "~0.01", "unit": "nM"},
      {"measurement": "Kd", "setting": "IL-15Rα; read-out: affinity of IL-15Rα for hIL-15", "value": 0.038, "unit": "nM"},
      {"measurement": "reduction in BM myeloma cells compared to PBS controls", "setting": "5T33P myeloma cells", "value": 53, "unit": "%"}
    ]},
    {"substance": "Mutant 6: human IL-15 variant, N72D", "values": [
      {"measurement": "increase of IL-15 biological activity by the substitution", "setting": "32Dβ cells [2]", "value": "5 to 10", "unit": "fold"}
    ]},
    {"substance": "c264scTCR/huIL15: c264scTCR fused to the N-terminus of hIL-15", "values": [
      {"measurement": "EC50", "setting": "32Dβ cells [3]", "value": "~0.3", "unit": "nM"},
      {"measurement": "effect on s.c. A375 tumor xenografts", "setting": "[1]", "value": "no effect"}
    ]},
    {"substance": "c264scTCR/huIL15D8A+c264scTCR/huIL15Rα Sushi complex: dimeric fusion protein complex with IL-15 D8A variant", "values": [
      {"measurement": "binding to the IL-15Rβγc receptors present on the 32Dβ cells", "setting": "IL-15Rβγc receptors", "value": "do not show binding activity"},
      {"measurement": "specific staining of p53 peptide-loaded T2 cells", "setting": "p53 (aa264-272)/HLA-A2.1", "value": "equivalent activity"}
    ]},
    {"substance": "c264scTCR/huIL15D8N+c264scTCR/huIL15RαSushi complex: dimeric fusion protein complex with IL-15 D8N variant", "values": [
      {"measurement": "binding to the IL-15Rβγc receptors present on the 32Dβ cells", "setting": "IL-15Rβγc receptors", "value": "do not show binding activity"},
      {"measurement": "specific staining of p53 peptide-loaded T2 cells", "setting": "p53 (aa264-272)/HLA-A2.1", "value": "equivalent activity"}
    ]},
    {"substance": "c264scTCR/huIgG1: p53 (aa 264-272) single-chain TCR fused to human IgG1", "values": [
      {"measurement": "A375 tumor growth", "setting": "[1]; Example 10, i.v. 1.6 mg/kg T2 or c264scTCR/huIL2, 3 mg/kg 264scTCR/huIgG1", "value": "inhibited"}
    ]},
    {"substance": "etanercept", "values": [
      {"measurement": "potency at inhibiting TNF-α activity relative to monomeric sTNFR", "setting": "TNF-α", "value": "up to 1,000 times"},
      {"measurement": "serum half-life relative to the monomeric form", "setting": "TNF-α", "value": "five-fold longer serum half-life"}
    ]}
  ]
}
